{"source": "patent US7718651B2", "about": "“Inhibitors of FtsZ and uses thereof” (priority 2002, dated 2010)"}
{"tested_on": "M. tuberculosis H37Rv", "test": "microbe, parasite or virus in culture", "assay_type": "cell-based", "conditions": "not given", "units": {"% Inh": "%"}}
{"smiles": "CCOC(=O)Nc1cc2c(c(N)n1)N=C(c1ccccc1)[C@H](C)N2", "note": "[Compound A129]", "% Inh": 28}
{"smiles": "CCOC(=O)Nc1cc2c(c(N)n1)N=C(c1ccccc1)[C@@H](C)N2", "note": "[Compound A98]", "% Inh": 57}
{"tested_on": "M. tuberculosis H37Rv", "test": "microbe, parasite or virus in culture", "assay_type": "cell-based", "conditions": "M. tuberculosis H37Rv, screen concentration 12.5 g/ml [sic], Table 8", "units": {"% Inh": "%"}}
{"smiles": "CCOC(=O)Nc1cc(NCc2ccccc2)c([N+](=O)[O-])c(N)n1", "note": "[Compound A66]", "% Inh": 83}
{"smiles": "CCOC(=O)Nc1cc(NCC(=O)c2ccc(Cl)cc2)c([N+](=O)[O-])c(N)n1", "note": "[Compound A240]", "% Inh": 0}
{"smiles": "CCOC(=O)Nc1cc(N)c2ncc(-c3cc(OC)c(OC)c(OC)c3)nc2n1", "note": "[Compound A147]", "% Inh": 15}
{"smiles": "CCOC(=O)Nc1cc(NC/C(=N/O)c2cccc(OC)c2)c([N+](=O)[O-])c(N)n1", "note": "[Compound A231]", "% Inh": 0}
{"smiles": "CCOC(=O)Nc1cc(NC/C(=N/O)c2ccc(C)cc2)c([N+](=O)[O-])c(N)n1", "note": "[Compound A210]", "% Inh": 0}
{"smiles": "CCOC(=O)Nc1cc2[nH]c(-c3ccc([N+](=O)[O-])cc3)nc2c(N(CCc2ccccc2)Cc2ccccc2)n1", "note": "[Compound A14]", "% Inh": 98}
{"smiles": "CCCCC1Nc2cc(NC(=O)OCC)nc(N)c2N=C1C", "note": "(stereo not drawn) [Compound A87]", "% Inh": 64}
{"smiles": "CCOC(=O)Nc1cc2nc(-c3ccccc3)c(-c3ccccc3)nc2c(N)n1", "note": "[Compound A49]", "% Inh": 92}
{"smiles": "CCOC(=O)Nc1cc(NC(C)/C(=N/O)c2ccccc2)c([N+](=O)[O-])c(N)n1", "note": "(stereo not drawn) [Compound A172]", "% Inh": 5}
{"smiles": "CCOC(=O)Nc1cc(NCCC(O)c2ccccc2)c([N+](=O)[O-])c(N)n1", "note": "(stereo not drawn) [Compound A115]", "% Inh": 41}
{"smiles": "CCOC(=O)Nc1cc(N[C@H](C)[C@H](O)c2ccc(O)cc2)c([N+](=O)[O-])c(N)n1", "note": "[Compound A173]", "% Inh": 5}
{"smiles": "CCOC(=O)Nc1cc2c(c(N)n1)N=C(CN(C)c1ccc(C(=O)OC)cc1)CN2", "note": "[Compound A288]", "% Inh": 0}
{"smiles": "CCOC(=O)Nc1cc(NC/C(=N/O)c2ccc(OC)c(OC)c2OC)c([N+](=O)[O-])c(N)n1", "note": "[Compound A212]", "% Inh": 0}
{"smiles": "CCOC(=O)Nc1cc2ncc(CNc3ccc(C(=O)OCC)cc3)nc2c(N)n1", "note": "[Compound A289]", "% Inh": 0}
{"smiles": "CCOC(=O)Nc1cc(Nc2ccc(Cl)cc2)c(N)c(N)n1", "note": "[Compound A92]", "% Inh": 61}
{"smiles": "CCOC(=O)Nc1cc(Nc2ccccc2)c([N+](=O)[O-])c(N)n1", "note": "[Compound A59]", "% Inh": 88}
{"smiles": "COC(=O)Nc1cc(Cl)cc(NC(=O)OC)n1", "note": "[Compound A201]", "% Inh": 0}
{"smiles": "Nc1nc(NC(=O)OCc2ccccc2)cc(Cl)c1[N+](=O)[O-]", "note": "[Compound A286]", "% Inh": 0}
{"smiles": "CCOC(=O)Nc1cc(NC/C(=N/O)c2ccc([N+](=O)[O-])cc2)c([N+](=O)[O-])c(N)n1", "note": "[Compound A238]", "% Inh": 0}
{"smiles": "CCOC(=O)Nc1cc2[nH]c(=O)c(-c3ccccc3)nc2c(NC(c2ccccc2)c2ccccc2)n1", "note": "[Compound A195]", "% Inh": 0}
{"smiles": "C=CCNc1cc(NC(=O)OCC)nc(NC(=O)OCC)c1[N+](=O)[O-]", "note": "[Compound A281]", "% Inh": 0}
{"smiles": "CCOC(=O)Nc1cc2c(c(N)n1)N=C(c1cc(OC)c(OC)c(OC)c1)CO2", "note": "[Compound A227]", "% Inh": 0}
{"smiles": "CCOC(=O)Nc1cc(Nc2ccc(Cl)cc2)c2ncc(C)nc2n1", "note": "[Compound A260]", "% Inh": 0}
{"smiles": "CCOC(=O)Nc1cc2[nH]c(-c3cc(OC)c(OC)c(OC)c3)nc2c(N(CCc2ccccc2)Cc2ccccc2)n1", "note": "[Compound A28]", "% Inh": 97}
{"smiles": "CCOC(=O)Nc1cc(NC(c2ccccc2)c2ccccc2)c2nc(-c3cc(OC)c(OC)c(OC)c3)cnc2n1", "note": "[Compound A265]", "% Inh": 0}
{"smiles": "CCOC(=O)Nc1cc(NCC(=O)c2ccc(-c3ccccc3)cc2)c([N+](=O)[O-])c(N)n1", "note": "[Compound A300]", "% Inh": 0}
{"smiles": "CCOC(=O)Nc1cc(NC/C(CNc2ccc(C(=O)OCC)cc2)=N/O)c([N+](=O)[O-])c(N)n1", "note": "[Compound A291]", "% Inh": 0}
{"smiles": "CCOC(=O)Nc1cc(NCCc2ccc(S(=O)(=O)N(CC)CC)cc2)c2ncc(-c3ccc(Cl)cc3)nc2n1", "note": "[Compound A259]", "% Inh": 0}
{"smiles": "CCOC(=O)Nc1cc2c(c(N)n1)N=C(c1ccc([N+](=O)[O-])cc1)CO2", "note": "[Compound A225]", "% Inh": 0}
{"smiles": "CCOC(=O)Nc1cc2c(c(/N=C/N(C)C)n1)N=C(c1ccccc1)CO2", "note": "[Compound A230]", "% Inh": 0}
{"smiles": "CCOC(=O)Nc1cc2oc(-c3cc(OC)c(OC)c(OC)c3)nc2c(N(CCc2ccccc2)Cc2ccccc2)n1", "note": "[Compound A124]", "% Inh": 31}
{"smiles": "CCOC(=O)Nc1cc(NC/C(=N/O)c2ccc(Cl)cc2Cl)c([N+](=O)[O-])c(N)n1", "note": "[Compound A58]", "% Inh": 89}
{"smiles": "CCOC(=O)Nc1cc(Cl)cc(NC(=O)OCC)n1", "note": "[Compound A185]", "% Inh": 2}
{"smiles": "CCOC(=O)Nc1cc2c(c(N)n1)N=C(c1ccccc1OC)CO2", "note": "[Compound A131]", "% Inh": 25}
{"smiles": "CCOC(=O)Nc1ccc(/N=C/c2ccccc2)cn1", "note": "[Compound A223]", "% Inh": 0}
{"smiles": "CCOC(=O)Nc1cc(N)c([N+](=O)[O-])c(N[C@H](C)C(=O)c2ccccc2)n1", "note": "[Compound A112]", "% Inh": 42}
{"smiles": "CCOC(=O)Nc1cc2c(nc(-c3ccccc3)n2C(c2ccccc2)c2ccccc2)c(Cl)n1", "note": "[Compound A89]", "% Inh": 63}
{"smiles": "CCOC(=O)Nc1cc(NC(C)C(=O)COc2ccccc2)c([N+](=O)[O-])c(N)n1", "note": "(stereo not drawn) [Compound A133]", "% Inh": 23}
{"smiles": "CCOC(=O)Nc1cc2[nH]c(CCc3ccccc3)nc2c(N(CCc2ccccc2)Cc2ccccc2)n1", "note": "[Compound A19]", "% Inh": 98}
{"smiles": "COC(=O)Nc1cc2c(c(N)n1)N=C(c1ccccc1)[C@H](C)N2", "note": "[Compound A113]", "% Inh": 41}
{"smiles": "CCOC(=O)Nc1cc(N(C)/N=C/c2ccccc2)c([N+](=O)[O-])c(N)n1", "note": "[Compound A204]", "% Inh": 0}
{"smiles": "CCOC(=O)Nc1cc2[nH]c(-c3ccccc3)nc2c(N)n1", "note": "[Compound A125]", "% Inh": 30}
{"smiles": "CCOC(=O)Nc1cc(NC(C)CCCN(CC)CC)c2nccnc2n1", "note": "(stereo not drawn) [Compound A253]", "% Inh": 0}
{"smiles": "CCOC(=O)Nc1cc2[nH]c(-c3ccc(OC)cc3)nc2c(N(CCc2ccccc2)Cc2ccccc2)n1", "note": "[Compound A16]", "% Inh": 98}
{"smiles": "CCOC(=O)Nc1cc2[nH]c(-c3ccc(Cl)cc3)nc2c(N(CCc2ccccc2)Cc2ccccc2)n1", "note": "[Compound A4]", "% Inh": 99}
{"smiles": "CCOC(=O)Nc1cc2nc(-c3ccccc3)c(-c3ccccc3)nc2c(OCC)n1", "note": "[Compound A72]", "% Inh": 75}
{"smiles": "CCOC(=O)Nc1cc(N)c2nnsc2n1", "note": "[Compound A218]", "% Inh": 0}
{"smiles": "CCOC(=O)Nc1cc2c(c(N)n1)N=C(c1ccc(OC)cc1)CS2", "note": "[Compound A158]", "% Inh": 10}
{"smiles": "Br.CCOC(=O)Nc1cc(N)c([N+](=O)[O-])c(NCC(C)=O)n1", "note": "[Compound A75]", "% Inh": 72}
{"smiles": "CCOC(=O)Nc1cc(NC(CC)C(=O)c2ccccc2)c([N+](=O)[O-])c(N)n1", "note": "(stereo not drawn) [Compound A307]", "% Inh": "−8"}
{"smiles": "CCOC(=O)Nc1cc2[nH]c(=O)c(-c3ccccc3)nc2c(N)n1", "note": "[Compound A196]", "% Inh": 0}
{"smiles": "CCOC(=O)Nc1cc(NCCC(=O)c2ccccc2)c([N+](=O)[O-])c(N)n1", "note": "[Compound A308]", "% Inh": "−8"}
{"smiles": "CCOC(=O)Nc1cc2[nH]c(C)nc2c(N(CCc2ccccc2)Cc2ccccc2)n1", "note": "[Compound A69]", "% Inh": 71}
{"smiles": "CCOC(=O)Nc1cc(NCCCCc2ccccc2)c2nc[nH]c2n1", "note": "[Compound A86]", "% Inh": 65}
{"smiles": "CCOC(=O)Nc1cc(OCC)c2nc(-c3ccccc3)c(-c3ccccc3)nc2n1", "note": "[Compound A38]", "% Inh": 95}
{"smiles": "CCOC(=O)Nc1cc(N)c2nc(CN(C)c3ccccc3)cnc2n1", "note": "[Compound A273]", "% Inh": 0}
{"smiles": "CCOC(=O)Nc1cc2c(c(N)n1)N=C(c1cccc(N)c1)C(C)N2", "note": "(stereo not drawn) [Compound A167]", "% Inh": 7}
{"smiles": "CCOC(=O)Nc1cc(N[C@@H](C)C(=O)c2ccc(O)cc2)c([N+](=O)[O-])c(N)n1", "note": "[Compound A304]", "% Inh": "−2"}
{"smiles": "CCOC(=O)Nc1cc(NC(C)C(=O)c2ccccc2)c([N+](=O)[O-])cn1", "note": "(stereo not drawn) [Compound A314]", "% Inh": "−36"}
{"smiles": "CCOC(=O)Nc1cc(NC(C)CCCN(CC)CC)c2ncc(-c3ccc(C(F)(F)F)cc3)nc2n1", "note": "(stereo not drawn) [Compound A102]", "% Inh": 54}
{"smiles": "CCOC(=O)Nc1nc(NC(=O)OCC)c([N+](=O)[O-])c(NC(C)/C(=N\\O)c2ccccc2)c1[N+](=O)[O-]", "note": "(stereo not drawn) [Compound A150]", "% Inh": 14}
{"smiles": "CCOC(=O)Nc1cc2c(c(N)n1)N=C(CN(C)c1ccc(OC)cc1)CN2", "note": "[Compound A138]", "% Inh": 20}
{"smiles": "CCOC(=O)Nc1cc(N/N=C/c2ccccc2)c2nc(SCc3ccccc3)[nH]c2n1", "note": "[Compound A57]", "% Inh": 89}
{"smiles": "CCOC(=O)Nc1cc(NC(C)C(=O)c2ccc3c(c2)OCO3)c([N+](=O)[O-])c(N)n1", "note": "(stereo not drawn) [Compound A140]", "% Inh": 19}
{"smiles": "CCOC(=O)Nc1cc(NC(c2ccccc2)c2ccccc2)c2nc(O)[nH]c2n1", "note": "[Compound A134]", "% Inh": 23}
{"smiles": "CCOC(=O)Nc1cc2[nH]nnc2c(Cl)n1", "note": "[Compound A206]", "% Inh": 0}
{"smiles": "CCOC(=O)Nc1cc2[nH]c(-c3ccccc3F)nc2c(N(CCc2ccccc2)Cc2ccccc2)n1", "note": "[Compound A20]", "% Inh": 98}
{"smiles": "CCOC(=O)Nc1cc(NCCc2ccc(S(=O)(=O)N(CC)CC)cc2)c2ncc(C)nc2n1", "note": "[Compound A255]", "% Inh": 0}
{"smiles": "CCOC(=O)Nc1cc(N[C@H](C)[C@@H](O)c2ccccc2)c(N)c(N)n1", "note": "[Compound A310]", "% Inh": "−15"}
{"smiles": "CCOC(=O)Nc1cc(NC(c2ccccc2)c2ccccc2)c([N+](=O)[O-])c(N)n1", "note": "[Compound A264]", "% Inh": 0}
